Data reported in patent US20250065017A1, “Fractionating Extracellular Matrix to Modulate Bioactivity and the Host Response” (University of Pittsburgh - Of the Commonwealth System of …, priority 2014, published 2025).

Key:
THP-1 macrophages = assay: TNFα and IL-1β secretion after treatment (ELISA); format: cell-based, human; settings: 48 hours treatment
Description: (§1) THP-1 human monocytes were obtained from the American Tissue Culture Collection (ATCC, Manassas, VA) and maintained in RPMI, 10% FBS, 1% penicillin/streptomycin, 2 mM L-glutamine, and 1 mM sodium pyruvate in a humidified atmosphere at 37° C. with 5% CO2. For TNFα, PGE2, PGF2α, IL-1β, and IL-1RA experiments, 500,000 THP-1 cells/well were plated with 320 nM phorbol 12-myristate 13-acetate (PMA) for 24 hours to induce differentiation into macrophages. Adherent macrophages were washed in PBS and placed in fresh media, followed by a 24 hour incubation in fresh media to acquiesce. Human PSCs were isolated from blood vessels in fetal muscle according to the methods outlined by Crisan et al. [Purification and long-term culture of multipotent progenitor cells affiliated with the walls of human blood vessels: myoendothelial cells and pericytes. […]
(§2) Macrophages prepared as described in the Cell Culture section were treated with UBM digest (290 μg/mL) or fractionated components (80 μg/mL soluble, 170 μg/mL structural) for 48 (TNFα, IL-1β and IL-1RA), or 72 (PGE2 and PGF2α) hours. […] Commercially available ELISA kits were used to determine the absolute quantities of TNFα (BD Bioscience, San Jose, CA), PGE2 (Enzo, Farmingdale, NY), PGF2α (Enzo, Farmingdale, NY), IL-1β (BD Bioscience, San Jose, CA), and IL1-RA (R&D Systems, Minneapolis, MN) according to the manufacturer's instructions. […]

THP1 macrophages = assay: PGE2 and PGF2α secretion (ELISA); format: cell-based, human; settings: coadministered along with UBM hydrogel
Description: as §1, §2

In the case of lipopolysaccharide [LPS], the “production of TNFα and IL-1β above control” value (THP-1 macrophages) is reported as 100-1000 fold.

For `CS(=O)(=O)Nc1ccc([N+](=O)[O-])cc1OC1CCCCC1` [NS-398], the “PGE2 secretion on co-incubation with COX2 inhibitor” value (THP1 macrophages) was “abrogated PGE2 secretion down to control levels”.
